Measurements reported in patent publication US6737383B1, “Herbicidal oxadiazolidines” (priority 1999, dated 2004).

What was measured:
bedstraw = assay: Test B pre/postemergence bedstraw; type: in vivo, Galium aparine; details: Preemergence; for Plant response rating, Bedstraw: Rate 125 g/ha, scale of 0 to 10 where 0 is no effect and 10 is complete control
Procedure, shortened: (§1)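 Test chemicals in a non-phytotoxic solvent mixture with surfactant were sprayed preemergence onto planted seeds and postemergence onto plants 2 to 18 cm tall (1- to 4-leaf stage). After twelve to sixteen days in a greenhouse, injury was visually rated against untreated controls from 0 (no effect) to 10 (complete control).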

blackgrass = assay: Test B pre/postemergence blackgrass; type: in vivo, Alopecurus myosuroides
Procedure, shortened: as §1

surinam grass = assay: Test B pre/postemergence surinam grass; type: in vivo, Brachiaria decumbens
Procedure, shortened: as §1

cocklebur = assay: Test B pre/postemergence cocklebur; type: in vivo, Xanthium strumarium
Procedure, shortened: as §1

corn = assay: Test B pre/postemergence corn; type: in vivo, Zea mays
Procedure, shortened: as §1

crabgrass = assay: Test B pre/postemergence crabgrass; type: in vivo, Digitaria sanguinalis
Procedure, shortened: as §1

giant foxtail = assay: Test B pre/postemergence giant foxtail; type: in vivo, Setaria faberii
Procedure, shortened: as §1

morningglory = assay: Test B pre/postemergence morningglory; type: in vivo, Ipomoea hederacea
Procedure, shortened: as §1

pigweed = assay: Test B pre/postemergence pigweed; type: in vivo, Amaranthus retroflexus
Procedure, shortened: as §1

rape = assay: Test B pre/postemergence rape; type: in vivo, Brassica napus
Procedure, shortened: as §1

soybean = assay: Test B pre/postemergence soybean; type: in vivo, Glycine max
Procedure, shortened: as §1

sugar beet = assay: Test B pre/postemergence sugar beet; type: in vivo, Beta vulgaris
Procedure, shortened: as §1

velvetleaf = assay: Test B pre/postemergence velvetleaf; type: in vivo, Abutilon theophrasti
Procedure, shortened: as §1

wheat = assay: Test B pre/postemergence wheat; type: in vivo, Triticum aestivum
Procedure, shortened: as §1

wild oat = assay: Test B pre/postemergence wild oat; type: in vivo, Avena fatua
Procedure, shortened: as §1

purple nutsedge = assay: Test B pre/postemergence purple nutsedge; type: in vivo, Cyperus rotundus
Procedure, shortened: as §1

[1] = Rate 250 g/ha, scale 0 (no effect) to 10 (complete control)
[2] = Rate 500 g/ha, scale 0 to 10 (0 no effect, 10 complete control)
[3] = Preemergence, Rate 125 g/ha, scale of 0 to 10 where 0 is no effect and 10 is complete control
[4] = Preemergence, Rate 250 g/ha, scale 0 (no effect) to 10 (complete control)
[5] = Rate 62 g/ha, Preemergence, scale 0 to 10
[6] = Rate 500 g/ha, Preemergence, scale 0 to 10 (0 no effect, 10 complete control)
[7] = Preemergence, Rate 62 g/ha, scale of 0 to 10 where 0 is no effect and 10 is complete control
[8] = Postemergence, Rate 62 g/ha, scale 0 to 10, 0 is no effect, 10 is complete control
[9] = Postemergence, Rate 125 g/ha, scale of 0 to 10 where 0 is no effect and 10 is complete control
[10] = Rate 250 g/ha, Postemergence, scale 0 to 10, 0 is no effect, 10 is complete control
[11] = Rate 500 g/ha, Postemergence, scale 0 to 10, 0 is no effect, 10 is complete control

CC(C)N(C(=O)n1oc(=O)n(CBr)c1=O)c1ccccc1 [Compound 755]
Plant response rating, Bedstraw (bedstraw): 0
Bedstraw plant response rating (bedstraw; [1]): 0
Bedstraw plant response rating (bedstraw; Rate 62 g/ha, scale 0 to 10): 0
Bedstraw plant response rating (bedstraw; [2]): 0
Plant response rating, Blackgrass (blackgrass; [3]): 0
Blackgrass plant response rating (blackgrass; [4]): 0
Blackgrass plant response rating (blackgrass; [5]): 0
Blackgrass plant response rating (blackgrass; [6]): 0
B. signalgrass plant response rating (surinam grass; [7]): 0
Plant response rating, B. signalgrass (surinam grass; [3]): 0
B. signalgrass plant response rating (surinam grass; [4]): 0
B. signalgrass plant response rating (surinam grass; [6]): 0
Plant response rating, Cocklebur (cocklebur; [3]): 0
Cocklebur plant response rating (cocklebur; [4]): 0
Cocklebur plant response rating (cocklebur; [5]): 0
Cocklebur plant response rating (cocklebur; [6]): 0
Plant response rating, Corn (corn; [3]): 0
Corn plant response rating (corn; [4]): 0
Corn plant response rating (corn; [5]): 0
Corn plant response rating (corn; [6]): 0
Plant response rating, Crabgrass (crabgrass; [3]): 0
Crabgrass plant response rating (crabgrass; [4]): 0
Crabgrass plant response rating (crabgrass; [5]): 0
Crabgrass plant response rating (crabgrass; [6]): 0
Plant response rating, Giant foxtail (giant foxtail; [3]): 0
Giant foxtail plant response rating (giant foxtail; [4]): 0
Giant foxtail plant response rating (giant foxtail; [5]): 0
Giant foxtail plant response rating (giant foxtail; [6]): 2
Plant response rating, Morningglory (morningglory; [3]): 0
Morningglory plant response rating (morningglory; [4]): 0
Morningglory plant response rating (morningglory; [5]): 0
Morningglory plant response rating (morningglory; [6]): 0
Plant response rating, Redroot pigweed (pigweed; [3]): 0
Redroot pigweed plant response rating (pigweed; [4]): 0
Redroot pigweed plant response rating (pigweed; [5]): 0
Redroot pigweed plant response rating (pigweed; [6]): 0
Plant response rating, Rape (rape; [3]): 0
Rape plant response rating (rape; [4]): 0
Rape plant response rating (rape; [5]): 0
Rape plant response rating (rape; [6]): 0
Plant response rating, Soybean (soybean; [3]): 0
Soybean plant response rating (soybean; [4]): 0
Soybean plant response rating (soybean; [5]): 0
Soybean plant response rating (soybean; [6]): 0
Plant response rating, Sugarbeets (sugar beet; [3]): 0
Sugarbeets plant response rating (sugar beet; [4]): 0
Sugarbeets plant response rating (sugar beet; [5]): 0
Sugarbeets plant response rating (sugar beet; [6]): 0
Plant response rating, Velvetleaf (velvetleaf; [3]): 0
Velvetleaf plant response rating (velvetleaf; [4]): 0
Velvetleaf plant response rating (velvetleaf; [5]): 0
Velvetleaf plant response rating (velvetleaf; [6]): 0
Plant response rating, Wheat (wheat; [3]): 0
Wheat plant response rating (wheat; [4]): 0
Wheat plant response rating (wheat; [5]): 0
Wheat plant response rating (wheat; [6]): 0
Plant response rating, Wild oats (wild oat; [3]): 0
Wild oats plant response rating (wild oat; [4]): 0
Wild oats plant response rating (wild oat; [5]): 0
Wild oats plant response rating (wild oat; [6]): 0
Nutsedge plant response rating (purple nutsedge; [4]): 0
Nutsedge plant response rating (purple nutsedge; [5]): 0
Nutsedge plant response rating (purple nutsedge; [6]): 0

COC1CCC(Cn2c(=O)on(C(=O)N(c3ccc(Cl)cc3)C(C)C)c2=O)=NO1 (stereo not drawn) [Compound 760]
Plant response rating, Bedstraw (bedstraw): 0
Bedstraw plant response rating (bedstraw; [1]): 0
Bedstraw plant response rating (bedstraw; Rate 62 g/ha, scale 0 to 10): 0
Bedstraw plant response rating (bedstraw; [2]): 6
Plant response rating, Blackgrass (blackgrass; [8]): 0
Blackgrass plant response rating (blackgrass; [9]): 0
Plant response rating, Blackgrass (blackgrass; [3]): 4
Blackgrass plant response rating (blackgrass; [4]): 6
Blackgrass plant response rating (blackgrass; [5]): 0
Blackgrass plant response rating (blackgrass; [10]): 0
Blackgrass plant response rating (blackgrass; [11]): 3
Blackgrass plant response rating (blackgrass; [6]): 9
Plant response rating, B. signalgrass (surinam grass; [8]): 0
B. signalgrass plant response rating (surinam grass; [9]): 0
B. signalgrass plant response rating (surinam grass; [7]): 2
Plant response rating, B. signalgrass (surinam grass; [3]): 3
B. signalgrass plant response rating (surinam grass; [4]): 10
B. signalgrass plant response rating (surinam grass; [10]): 0
B. signalgrass plant response rating (surinam grass; [11]): 5
B. signalgrass plant response rating (surinam grass; [6]): 10
Plant response rating, Cocklebur (cocklebur; [8]): 0
Cocklebur plant response rating (cocklebur; [9]): 0
Cocklebur plant response rating (cocklebur; [4]): 0
Cocklebur plant response rating (cocklebur; [5]): 0
Cocklebur plant response rating (cocklebur; [10]): 0
Cocklebur plant response rating (cocklebur; [11]): 1
Cocklebur plant response rating (cocklebur; [6]): 0
Plant response rating, Corn (corn; [8]): 0
Corn plant response rating (corn; [9]): 0
Plant response rating, Corn (corn; [3]): 0
Corn plant response rating (corn; [4]): 0
Corn plant response rating (corn; [5]): 0
Corn plant response rating (corn; [10]): 1
Corn plant response rating (corn; [11]): 1
Corn plant response rating (corn; [6]): 4
Plant response rating, Crabgrass (crabgrass; [8]): 5
Crabgrass plant response rating (crabgrass; [9]): 6
Plant response rating, Crabgrass (crabgrass; [3]): 7
Crabgrass plant response rating (crabgrass; [4]): 10
Crabgrass plant response rating (crabgrass; [5]): 2
Crabgrass plant response rating (crabgrass; [10]): 9
Crabgrass plant response rating (crabgrass; [6]): 10
Plant response rating, Giant foxtail (giant foxtail; [8]): 0
Giant foxtail plant response rating (giant foxtail; [9]): 7
Plant response rating, Giant foxtail (giant foxtail; [3]): 9
Giant foxtail plant response rating (giant foxtail; [4]): 10
Giant foxtail plant response rating (giant foxtail; [5]): 8
Giant foxtail plant response rating (giant foxtail; [10]): 7
Giant foxtail plant response rating (giant foxtail; [11]): 7
Giant foxtail plant response rating (giant foxtail; [6]): 10
Plant response rating, Morningglory (morningglory; [8]): 3
Morningglory plant response rating (morningglory; [9]): 3
Plant response rating, Morningglory (morningglory; [3]): 0
Morningglory plant response rating (morningglory; [4]): 0
Morningglory plant response rating (morningglory; [5]): 0
Morningglory plant response rating (morningglory; [10]): 3
Morningglory plant response rating (morningglory; [11]): 3
Morningglory plant response rating (morningglory; [6]): 0
Plant response rating, Redroot pigweed (pigweed; [8]): 0
Redroot pigweed plant response rating (pigweed; [9]): 0
Plant response rating, Redroot pigweed (pigweed; [3]): 7
Redroot pigweed plant response rating (pigweed; [4]): 9
Redroot pigweed plant response rating (pigweed; [5]): 7
Redroot pigweed plant response rating (pigweed; [10]): 2
Redroot pigweed plant response rating (pigweed; [11]): 3
Redroot pigweed plant response rating (pigweed; [6]): 9
Plant response rating, Rape (rape; [8]): 2
Rape plant response rating (rape; [9]): 1
Plant response rating, Rape (rape; [3]): 0
Rape plant response rating (rape; [4]): 2
Rape plant response rating (rape; [5]): 0
Rape plant response rating (rape; [10]): 2
Rape plant response rating (rape; [11]): 5
Rape plant response rating (rape; [6]): 5
Plant response rating, Soybean (soybean; [8]): 4
Plant response rating, Soybean (soybean; [3]): 0
Soybean plant response rating (soybean; [4]): 0
Soybean plant response rating (soybean; [5]): 0
Soybean plant response rating (soybean; [10]): 4
Soybean plant response rating (soybean; [11]): 5
Soybean plant response rating (soybean; [6]): 0
Plant response rating, Sugarbeets (sugar beet; [8]): 0
Plant response rating, Sugarbeets (sugar beet; [3]): 3
Sugarbeets plant response rating (sugar beet; [4]): 3
Sugarbeets plant response rating (sugar beet; [5]): 3
Sugarbeets plant response rating (sugar beet; [10]): 0
Sugarbeets plant response rating (sugar beet; [11]): 0
Sugarbeets plant response rating (sugar beet; [6]): 6
Plant response rating, Velvetleaf (velvetleaf; [8]): 0
Plant response rating, Velvetleaf (velvetleaf; [3]): 0
Velvetleaf plant response rating (velvetleaf; [4]): 0
Velvetleaf plant response rating (velvetleaf; [5]): 0
Velvetleaf plant response rating (velvetleaf; [10]): 0
Velvetleaf plant response rating (velvetleaf; [11]): 3
Velvetleaf plant response rating (velvetleaf; [6]): 0
Plant response rating, Wheat (wheat; [8]): 0
Plant response rating, Wheat (wheat; [3]): 0
Wheat plant response rating (wheat; [4]): 0
Wheat plant response rating (wheat; [5]): 0
Wheat plant response rating (wheat; [10]): 0
Wheat plant response rating (wheat; [11]): 0
Wheat plant response rating (wheat; [6]): 3
Plant response rating, Wild oats (wild oat; [8]): 0
Plant response rating, Wild oats (wild oat; [3]): 0
Wild oats plant response rating (wild oat; [4]): 2
Wild oats plant response rating (wild oat; [5]): 0
Wild oats plant response rating (wild oat; [10]): 0
Wild oats plant response rating (wild oat; [11]): 4
Wild oats plant response rating (wild oat; [6]): 6
Plant response rating, Nutsedge (purple nutsedge; [8]): 0
Nutsedge plant response rating (purple nutsedge; [9]): 0
Plant response rating, Nutsedge (purple nutsedge; [3]): 0
Nutsedge plant response rating (purple nutsedge; [4]): 0
Nutsedge plant response rating (purple nutsedge; [5]): 0
Nutsedge plant response rating (purple nutsedge; [10]): 0
Nutsedge plant response rating (purple nutsedge; [11]): 0
Nutsedge plant response rating (purple nutsedge; [6]): 0
